{"source": "the supplement of paper PMC10307832", "experiment_in_all_cases": "relative viability (nuclei count vs DMSO), 5 days (fraction); higher = more cells survive", "key": {"[1]": {"compound": "NC1(c2ccc(-c3nc4ccn5c(=O)[nH]nc5c4cc3-c3ccccc3)cc2)CCC1 [MK-2206] + CC1(C)CCC(c2ccc(Cl)cc2)=C(CN2CCN(c3ccc(C(=O)NS(=O)(=O)c4ccc(N[C@H](CCN5CCOCC5)CSc5ccccc5)c(S(=O)(=O)C(F)(F)F)c4)cc3)CC2)C1 [Navitoclax] (partner 0.5 µM)", "method_in_brief": "(§1)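 Each reported value is a median over duplicate plates. It expresses relative viability: treated-well nuclei count divided by vehicle-well nuclei count. Lung cancer cell lines in 1536-well plates were dosed by pin tool a day after seeding, alone with one drug or with a fixed anchor-drug dose plus five library-drug doses (not always all listed) in √10 steps, and nuclei were counted after 5 days.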"}, "[2]": {"compound": "NC1(c2ccc(-c3nc4ccn5c(=O)[nH]nc5c4cc3-c3ccccc3)cc2)CCC1 [MK-2206] + COc1cc2c(Oc3ccc(NC(=O)C4(C(=O)Nc5ccc(F)cc5)CC4)cc3F)ccnc2cc1OCCCN1CCOCC1 [Foretinib] (partner 0.25 µM)", "method_in_brief": "as §1"}, "[3]": {"compound": "CS(=O)(=O)N1CCN(Cc2cc3nc(-c4cccc5[nH]ncc45)nc(N4CCOCC4)c3s2)CC1 [Pictilisib] + Cc1nc(NC(=O)N2CCC[C@H]2C(N)=O)sc1-c1ccnc(C(C)(C)C(F)(F)F)c1 [Alpelisib] (partner 2 µM)", "method_in_brief": "as §1"}, "[4]": {"compound": "CS(=O)(=O)N1CCN(Cc2cc3nc(-c4cccc5[nH]ncc45)nc(N4CCOCC4)c3s2)CC1 [Pictilisib] + CC(=O)c1c(C)c2cnc(Nc3ccc(N4CCNCC4)cn3)nc2n(C2CCCC2)c1=O [Palbociclib] (partner 0.5 µM)", "method_in_brief": "as §1"}, "[5]": {"compound": "CS(=O)(=O)N1CCN(Cc2cc3nc(-c4cccc5[nH]ncc45)nc(N4CCOCC4)c3s2)CC1 [Pictilisib] + Cc1cc(Nc2cc(N3CCN(C)CC3)nc(Sc3ccc(NC(=O)C4CC4)cc3)n2)n[nH]1 [Tozasertib] (partner 0.1 µM)", "method_in_brief": "as §1"}}, "data": [{"cell line": "UMC-11", "values": [{"measurement": "relative viability", "setting": "[1]; first compound 0.01 µM", "result": 0.309}, {"measurement": "relative viability", "setting": "[1]; first compound 0.03162 µM", "result": 0.327}, {"measurement": "relative viability", "setting": "[1]; first compound 0.3162 µM", "result": 0.344}, {"measurement": "relative viability", "setting": "[1]; first compound 1 µM", "result": 0.29}, {"measurement": "relative viability", "setting": "[2]; first compound 0.01 µM", "result": 1.08}, {"measurement": "relative viability", "setting": "[2]; first compound 0.03162 µM", "result": 1.1}, {"measurement": "relative viability", "setting": "[2]; first compound 0.3162 µM", "result": 1.16}, {"measurement": "relative viability", "setting": "[2]; first compound 1 µM", "result": 1.05}, {"measurement": "relative viability", "setting": "[3]; first compound 0.02 µM", "result": 0.942}, {"measurement": "relative viability", "setting": "[3]; first compound 0.06325 µM", "result": 1.05}, {"measurement": "relative viability", "setting": "[3]; first compound 0.6325 µM", "result": 1.14}, {"measurement": "relative viability", "setting": "[3]; first compound 2 µM", "result": 1.17}, {"measurement": "relative viability", "setting": "[4]; first compound 0.02 µM", "result": 0.334}, {"measurement": "relative viability", "setting": "[4]; first compound 0.06325 µM", "result": 0.318}, {"measurement": "relative viability", "setting": "[4]; first compound 0.6325 µM", "result": 0.427}, {"measurement": "relative viability", "setting": "[4]; first compound 2 µM", "result": 0.376}, {"measurement": "relative viability", "setting": "[5]; first compound 0.02 µM", "result": 0.202}, {"measurement": "relative viability", "setting": "[5]; first compound 0.06325 µM", "result": 0.192}, {"measurement": "relative viability", "setting": "[5]; first compound 0.6325 µM", "result": 0.2}, {"measurement": "relative viability", "setting": "[5]; first compound 2 µM", "result": 0.216}]}]}
